Experimental data taken from article PMC12670405, “Second-Generation AURKA-Targeting PROTACs: Structural Optimization toward in Vivo Degradation in Neuroblastoma” (Journal of Medicinal Chemistry, 2025).
Where two headings read alike, the source gives them in different places.

Legend:
Plasma stability assay = assay type: in vitro ADME, CD-1 mouse; conditions: for half-life at 1 μM: read-out: plasma t1/2
Experimental: (§1) Plasma and metabolic stability tests were performed by Eurofins Discovery. For the plasma stability assay, test compounds were incubated in CD-1 mouse plasma for 0, 0.5, 1, 1.5, and 2 h at 37 °C at a concentration of 1 μM. For the metabolic stability assay, test compounds were incubated at 37 °C in either (1) CD-1 mouse liver microsomes (MLM) (0.1 mg/mL) at a concentration of 0.1 μM for 0, 15, 30, 45, and 60 min or (2) CD-1 mouse hepatocytes (MH) (0.7 million viable cells/mL) at a concentration of 1 μM for 0, 0.5, 1, 1.5, and 2 h. At the respective time points, acetonitrile was added to the incubation mixture followed by centrifugation. Samples were analyzed by HPLC-MS/MS and peak areas were recorded for each analyte. Compound stability, expressed as the percentage of parent compound remaining, was calculated by comparing the peak area of the compound at each time point relative to that of the 0h time point. Percentage compound remaining is plotted as a function of time as a logarithmic curve. Half-life (t 1/2) is estimated from the slope of the initial linear range of the curve, assuming first-order kinetics. […] Both plasma and metabolic assay experiments were performed once with 2 replicate samples each.

AURKA = biological target: T1, AURKA (Homo sapiens, UniProt O14965); test: AURKA degradation, Simple Western; assay type: cell-based; set-up: Representative Western blot showing levels of endogenous proteins MDR1, MYCN, AURKA, and CRBN in untreated cell lines; endogenous in cells; host or cells: NGP, IMR-32, SJNB-8, SK-N-BE(2)-C, SK-N-SH, SK-N-AS, SJNB-1, RPE, HEK293T; conditions: for pDC50: AURKA degradation; for AURKA degradation activity (in words) / Dmax: NGP, 24 h treatment; for DC50: read-out: AURKA DC50;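 as to AURKA Degradation 24h @1000nM: measured in NGP neuroblastoma cells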;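 as to AURKA Degradation 24h @100nM: measured in NGP neuroblastoma cells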
T1 sequence (O14965 1-403): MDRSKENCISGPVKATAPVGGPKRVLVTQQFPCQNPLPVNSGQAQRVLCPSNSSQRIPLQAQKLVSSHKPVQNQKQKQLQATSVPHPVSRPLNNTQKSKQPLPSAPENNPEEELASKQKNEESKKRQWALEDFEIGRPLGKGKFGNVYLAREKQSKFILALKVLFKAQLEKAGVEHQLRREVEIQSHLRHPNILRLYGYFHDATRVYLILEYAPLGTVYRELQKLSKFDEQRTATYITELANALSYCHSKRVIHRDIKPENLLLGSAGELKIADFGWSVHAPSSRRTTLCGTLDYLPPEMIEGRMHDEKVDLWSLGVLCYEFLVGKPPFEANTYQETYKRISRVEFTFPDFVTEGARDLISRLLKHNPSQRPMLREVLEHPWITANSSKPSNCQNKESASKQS
Experimental: Cells were seeded in T-25 flasks at different densities ranging from 1 to 2 million cells per flask and allowed to adhere for 1–2 days. In experiments involving compound treatment, this was done by medium replacement containing the compound(s) of interest in their corresponding concentrations. In competition binding experiments, cells were first pretreated with an excess of MK-5108, thalidomide or MG-132 for 1 h by shaking gently at room temperature prior to addition of SK4454 or SK5527. All samples were normalized to contain the same percentage of DMSO as the negative DMSO controls. Cells were harvested on ice at their respective time points by scraping, washed with ice-cold PBS to collect remaining cells, and centrifuged (2500 rpm, 4 °C). A second washing and centrifugation step was performed prior to collection of the final cell pellets which were then snap-frozen in liquid nitrogen and kept frozen at −80 °C until further processing. Lysis of cell pellets occurred in cold RIPA buffer (0.5% w/v Sodium Deoxycholate, 150 mM NaCl, 50 mM TrisHCl pH 7.5, 0.1% w/v SDS, 1% w/v NP-40) supplemented with protease and phosphatase inhibitors (Roche, #11836145001, #04906845001) by rotating gently at 4 °C for 1h, followed by a centrifugation step for 10 min (10,000 rpm, 4 °C). The supernatant was collected and concentrations of the obtained protein lysates were measured using the Pierce BCA Protein Assay Kit (Thermo Fisher Scientific, #23227).
Simple Western analyses were performed with the Wes instrument (Bio-Techne) using the 12–230 kDa Wes Separation module and the EZ standard pack reagent 1 (Biotechne, #SM-W001, #PS-ST01EZ-8) following the manufacturer’s protocol. Protein lysates were loaded at 0.8 μg/μL under denaturing conditions (0.2 μg/μL for MYCN detection). Chemiluminescence peaks were generated by the Compass Software (Bio-Techne) and the area under the peaks calculated using the Gaussian fit method. Per lane, quantified data were always normalized to that of the loading control (Vinculin) prior to calculating fold changes relative to the negative DMSO control. Mean fold changes are calculated from 3 individual experiments. A list of the primary and secondary antibodies used can be found in the Supporting Information (Supplementary Table S7).
Graphs were generated using GraphPad Prism Software (version 10.1.2) or RStudio (R-4.3.2). All dose–response curves were computed on GraphPad Prism using the Variable Slope (four parameters) equation. Absolute half-maximal degradation (DC50), growth inhibitory (GI50) and enzymatic inhibitory (IC50) concentrations, as well as inhibition constants (Ki) were derived from dose–response curves via interpolation. Statistical tests were performed on GraphPad Prism and detailed in the figure legends. Unless otherwise stated, “n” in the figure legends indicates the number of independent experiments conducted at different times.

[1] = Metabolic stability in mouse liver microsomes (MLM); assay type: in vitro ADME, CD-1 mouse; conditions: CD-1
Experimental: as §1

NGP = test: IncuCyte live-cell imaging, antiproliferative effect; assay type: cell-based; conditions: Homo sapiens, 72 h
Excerpt: Human neuroblastoma cell lines NGP, IMR-32, SJNB-8, SK-N-BE(2)-C, SJNB-1, SK-N-SH and SK-N-AS, as well as benign immortalized cell lines RPE and HEK293T were either bought commercially or obtained through research laboratories. […] Screening for mycoplasma contamination occurred routinely on the cells. Human neuroblastoma cell lines SH-SY5Y_shABCB1 & SH-SY5Y_shNTC were generated by transduction with pLKO.1-ABCB1_TRCN0000059683 shRNA (Sigma MISSION SHCLND) or pLKO.1-puro NT shRNA (Sigma MISSION SHC002) vectors respectively (Supplementary Table S6), packaged using Lenti-X293T (Clontech). Transduced cells were selected with 2 μg/mL puromycin. These cells were cultured in DMEM 4.5 g/L D-Glucose, L-Glutamine and 110 mg/L Sodium Pyruvate (Gibco, #11995065) supplemented with 10% fetal bovine serum, 1× Antibiotic-Antimycotic solution (Sigma-Aldrich, #A5955) and 1× MEM nonessential amino acids (Sigma-Aldrich, #M7145). Incubation of all cells occurred at 37 °C and 5% CO2.
Neuroblastoma cells were seeded in 384-well plates at different densities ranging from 1200 to 5000 cells/well and allowed to adhere overnight. RPE and HEK293T were seeded at 200 and 600 cells/well, respectively. Compound treatment was performed using the D300e Digital Dispenser (Tecan) in duplicate or triplicate and cell confluency was monitored over time using the IncuCyte Live-cell imaging system (Sartorius). […] Mean normalized confluences were calculated from 3 individual experiments.
All dose–response curves were computed on GraphPad Prism using the Variable Slope (four parameters) equation. Absolute half-maximal degradation (DC50), growth inhibitory (GI50) and enzymatic inhibitory (IC50) concentrations, as well as inhibition constants (Ki) were derived from dose–response curves via interpolation. Statistical tests were performed on GraphPad Prism and detailed in the figure legends. Unless otherwise stated, “n” in the figure legends indicates the number of independent experiments conducted at different times.

| SMILES | half-life at 1 μM (Plasma stability assay; CD-1 mouse plasma, 1 μM, 37 °C) [h] | plasma t1/2 (Plasma stability assay; plasma) [h] | AURKA Degradation 24h @100nM (AURKA) | AURKA Degradation 24h @1000nM (AURKA) | pDC50 (AURKA) | AURKA degradation activity (in words) (AURKA) | Dmax (AURKA) [%] | DC50 (AURKA) [nM] | microsomal CLint at 0.1 μM [1] [µL/min/mg] | GI50 (NGP; read-out: GI50 72h, 72h) [nM] | GI50 (NGP; read-out: pGI50 (converted)) [nM] | half-life at 1 μM (Plasma stability assay; CD-1, mouse, plasma) [h] |
| --- | --- | --- | --- | --- | --- | --- | --- | --- | --- | --- | --- | --- |
| O=C1CCC(Nc2ccc(N3CCN(C(=O)CNC(=O)[C@]4(Cc5cccc(Nc6nccs6)n5)CC[C@@H](Oc5cccc(Cl)c5F)CC4)CC3)cc2)C(=O)N1 (stereo partly shown) [PROTAC 14] | > 2 | > 2 | 61 | 73 | 7,36 | significantly stronger degradation activity | 76 | 43.8 | 739 | 46 | 45.7 | – |
| O=C1CCN(c2ccc(N3CCN(CC4(F)CCN(C(=O)[C@]5(Cc6cccc(Nc7nccs7)n6)CC[C@@H](Oc6cccc(Cl)c6F)CC5)CC4)CC3)nc2)C(=O)N1 [PROTAC 27] | – | – | 88 | 93 | – | – | – | – | 1060 | 46 | 46.8 | > 2 |
| O=C1CCC(N2C(=O)c3ccc(OCCOCCNC(=O)[C@]4(Cc5cccc(Nc6nccs6)n5)CC[C@@H](Oc5cccc(Cl)c5F)CC4)cc3C2=O)C(=O)N1 (stereo partly shown) [SK3277, reference compound] | 1.18 | – | 81 | 75 | 8,15 | – | 81 | 7 | 1080 | 52 | 52.5 | – |
| O=C1CCC(N2C(=O)c3cccc(OCCOCCOCCN4CCN(C(=O)[C@]5(Cc6cccc(Nc7nccs7)n6)CC[C@@H](Oc6cccc(Cl)c6F)CC5)CC4)c3C2=O)C(=O)N1 (stereo partly shown) [PROTAC 3] | 1.32 | – | 80 | 77 | 8,06 | – | 81 | 8.7 | 456 | 42 | 41.7 | – |
| Cc1cc(Nc2ccc(F)c(CC3(C(=O)N4CCC(F)(C(=O)N5CCN(c6ccc(N7CCC(=O)NC7=O)cn6)CC5)CC4)CCN(Cc4cccc(Cl)c4F)CC3)n2)n[nH]1 [PROTAC 34] | – | – | 83 | 91 | – | – | – | – | – | 84 | 83.2 | – |
| O=C1CCC(Nc2ccc(N3CCN(CCNC(=O)[C@]4(Cc5cccc(Nc6nccs6)n5)CC[C@@H](Oc5cccc(Cl)c5F)CC4)CC3)cc2)C(=O)N1 (stereo partly shown) [PROTAC 13] | – | – | 68 | 91 | 7,9 | – | – | 12.5 | – | 30 | 29.5 | – |
| O=C1CCC(Nc2ccc(N3CCN(C(=O)[C@]4(Cc5cccc(Nc6nccs6)n5)CC[C@@H](Oc5cccc(Cl)c5F)CC4)CC3)cc2)C(=O)N1 (stereo partly shown) [PROTAC 12] | – | – | 12 | < 0 | – | failed to reduce AURKA levels and instead led to its upregulation | – | – | – | 715 | 708 | – |
| Cc1cc(Nc2ccc(F)c(CC3(C(=O)N4CCC(CN5CCC(c6ccc(N7CCC(=O)NC7=O)cn6)CC5)CC4)CCN(Cc4cccc(Cl)c4F)CC3)n2)n[nH]1 [PROTAC 36] | – | – | 58 | 78 | – | – | – | – | – | 60 | 60.3 | – |
| O=C1CCC(Nc2ccc(N3CCN(CC4CN(C(=O)[C@]5(Cc6cccc(Nc7nccs7)n6)CC[C@@H](Oc6cccc(Cl)c6F)CC5)C4)CC3)cc2)C(=O)N1 (stereo partly shown) [PROTAC 17] | – | – | 59 | 88 | 7,29 | – | – | 51.1 | – | 39 | 38.9 | – |
| O=C1CCC(N2C(=O)c3ccc(OCCN4CCN(C(=O)[C@]5(Cc6cccc(Nc7nccs7)n6)CC[C@@H](Oc6cccc(Cl)c6F)CC5)CC4)cc3C2=O)C(=O)N1 (stereo partly shown) [PROTAC 10] | – | – | 72 | 80 | – | – | – | – | – | 52 | 52.5 | – |
